Laboratory results: publication PMC13308190, “Endothelial progenitor cell susceptibility to DNA damaging and DDR-modulating compounds determines endothelial differentiation accuracy” (Stem Cell Research & Therapy, 2026)

What was measured:
Assay type in all cases: cell-based, mouse
[1] = system: EC d4; assay: EdU incorporation (S-phase activity); conditions: EC d4 48 h
Method: S-phase activity of cells was monitored by measuring EdU incorporation using the EdU-Click 488 assay according to the manufacturer’s protocol. Briefly, cells were pulse-treated with 5-ethynyl-2′-deoxyuridine (EdU) for 3 h. Alexa Fluor 488-conjugated reaction cocktail was added (30 min, RT) and nuclei were counterstained with DAPI. The percentage of EdU-positive area/DAPI-positive area was calculated by fluorescence microscopy (Olympus BX43, 20x objective).

[2] = system: mESC; assay: RT-qPCR mRNA expression; conditions: for Cdkn1a mRNA / Cdkn2a mRNA / Glb1 mRNA / Il6 mRNA / Il8 mRNA / Tp53 mRNA: Fig 7A; for Atp7a mRNA / Atp7b mRNA / Ctr2 mRNA / Mdr1 mRNA / Mrp1 mRNA / Oct2 mRNA: Fig 2D
Method: Total RNA was purified using the RNeasy Mini Kit (Qiagen, Hilden, Germany). Reverse transcriptase (RT) reaction was performed with the HighCapacity cDNA Reverse Transcription Kit (Applied Biosystems, Darmstadt, Germany) using 900–2000 ng of RNA. Quantitative RT-qPCR analysis was performed using following conditions: (1) 95 °C–10 min; (2) 45 amplification cycles with 95 °C–15 s, 55 °C–15 s, and 72 °C–17 s; (3) 95 °C–1 min, 55 °C–1 min, 65 °C–5 s. If not stated otherwise, analyses were performed in technical triplicates using pooled samples from two independent experiments (each performed with biological duplicates) by use of a CFX96 cycler (BioRad) and the SensiMix SYBR Kit (Bioline, London, UK). The primers used for mRNA expression analyses are listed in Supplementary Table 1. To ensure the specificity of the amplification product, melting curves were recorded at the end of the run. mRNA expression levels were normalized to β-Actin and Gapdh. Relative mRNA expression in mESC or corresponding untreated controls was set to 1.0. Only changes in gene expression of ≤ 0.5- and ≥ 2-fold were considered as biologically relevant. Fold-changes in gene expression are summarized in Supplementary Table 2.

[3] = system: EC d4; assay: ZO1 tight junction immunofluorescence; conditions: EC d4 treated 48 h
[4] = system: EC d6 (endothelial-like cells); assay: Western blot protein expression (densitometry); conditions: EC d6 24 h; for CHK1 protein / RAD51 protein / gH2AX protein / p-CHK2 protein / p-KAP1 protein / p-RPA32 protein / p-p53 protein: Fig 5D
Method: (§1) Total protein cell extracts were obtained upon sonication in RIPA buffer (EpiShearTM Probe sonicator, Active Motif [La Hulpe, Belgium]). Protein concentrations were determined using the DC Protein Assay (BioRad [Munich, Germany]). Extracts were supplemented with Roti®-Load buffer (Carl Roth GmbH [Karlsruhe, Germany]) followed by heating (95 °C for 5 min). 20 µg of protein was separated by SDS-PAGE and transferred onto nitrocellulose membrane. After blocking (5% non-fat milk in TBS/0.1% Tween 20 or 5% BSA in TBS/0.1% Tween 20) (1 h, RT) membrane was incubated with primary antibodies (1:500–5000; overnight, 4 °C). After washing with TBS/0.1% Tween 20, peroxidase-conjugated secondary antibody (1:2000) was added (2 h, RT) and bands were visualized using ChemiDoxTM Touch imaging system (BioRad, Munich, Germany).

[5] = system: mESC; assay: Western blot protein expression (densitometry); conditions: mESC 24 h
Method: as §1

[6] = system: EC d4 (endothelial progenitor cells); assay: Western blot protein expression (densitometry); conditions: EC d4 48 h; for CHK1 protein / RAD51 protein / gH2AX protein / p-CHK2 protein / p-KAP1 protein / p-RPA32 protein / p-p53 protein: Fig 5D
Method: as §1

[7] = mESC + 0.05 µM 24 h + 24 h post incubation
[8] = mESC + 0.1 µM 24 h + 24 h post incubation
[9] = concentration 1 (Dox 1/B02 1/EST 1)
[10] = concentration 2 (Dox 2/B02 2/EST 2)
[11] = Fig 5D, concentration 1 (Dox 1/B02 1/EST 1)
[12] = Fig 5D, concentration 2 (Dox 2/B02 2/EST 2)

## COc1cccc2c1C(=O)c1c(O)c3c(c(O)c1C2=O)C[C@@](O)(C(=O)CO)C[C@@H]3O[C@H]1C[C@H](N)[C@H](O)[C@H](C)O1 [Dox, doxorubicin]
[1]
  S-phase activity (EdU-positive cells): decrease in S-phase activity
[2]; [7]
  Cdkn1a mRNA: 2.20 Fold of untreated control
  Cdkn2a mRNA: 2.02 Fold of untreated control
  Glb1 mRNA: 1.22 Fold of untreated control
  Il6 mRNA: 2.74 Fold of untreated control
  Il8 mRNA: 1.29 Fold of untreated control
  Tp53 mRNA: 0.86 Fold of untreated control
[2]; mESC + 0.05 µM 24 h
  Atp7a mRNA: 2.50 Fold of control
  Atp7b mRNA: 1.82 Fold of control
  Ctr2 mRNA: 2.95 Fold of control
  Mdr1 mRNA: 4.03 Fold of control
  Mrp1 mRNA: 2.38 Fold of control
  Oct2 mRNA: 5.33 Fold of control
[2]; mESC + 0.05 µM 24 h, Fig 6C
  Gpx1 mRNA: 1.54 Fold of untreated control
  Gpx4 mRNA: 0.62 Fold of untreated control
  Gstm1 mRNA: 2.08 Fold of untreated control
  Hmox1 mRNA: 1.14 Fold of untreated control
  Pgc1a mRNA: 1.78 Fold of untreated control
  Sod1 mRNA: 1.30 Fold of untreated control
  Sod2 mRNA: 1.10 Fold of untreated control
[2]; mESC + 0.05 µM 24 h, Fig 6F
  Gpx4 mRNA: 1.03 Fold of untreated control
  Slc7a11 mRNA: 0.99 Fold of untreated control
[2]; [8]
  Cdkn1a mRNA: 2.09 Fold of untreated control
  Cdkn2a mRNA: 2.49 Fold of untreated control
  Glb1 mRNA: 1.35 Fold of untreated control
  Il6 mRNA: 2.84 Fold of untreated control
  Il8 mRNA: 1.07 Fold of untreated control
  Tp53 mRNA: 0.87 Fold of untreated control
[2]; mESC + 0.1 µM 24 h
  Atp7a mRNA: 3.09 Fold of control
  Atp7b mRNA: 2.42 Fold of control
  Ctr2 mRNA: 4.05 Fold of control
  Mdr1 mRNA: 6.26 Fold of control
  Mrp1 mRNA: 2.51 Fold of control
  Oct2 mRNA: 0.75 Fold of control
[2]; mESC + 0.1 µM 24 h, Fig 5C
  Brca1 mRNA: 1.93 Fold of mESC
  Chk1 mRNA: 0.68 Fold of mESC
  Rad51 mRNA: 1.36 Fold of mESC
[2]; mESC + 0.1 µM 24 h, Fig 6D
  Pgc1a mRNA: 10.69 Fold of untreated control
[2]; mESC + 0.1 µM 24 h, Fig 6F
  Gpx4 mRNA: 1.05 Fold of untreated control
  Slc7a11 mRNA: 1.20 Fold of untreated control
[3]
  ZO1 containing tight junctions in EC d6 differentiated from treated EC d4: fragmented / interrupted ZO1 containing tight junctions
[4]; Fig 1D
  H3ac protein: 0.0 Fold of mESC
  H4ac protein: 0.0 Fold of mESC
  aTubac (acetylated α-Tubulin) protein: 0.6 Fold of mESC
[4]; [9]
  CHK1 protein: 1.7 Fold of mESC
  RAD51 protein: 1.7 Fold of mESC
  gH2AX protein: 4.6 Fold of mESC
  p-CHK2 protein: 0.8 Fold of mESC
  p-KAP1 protein: 0.0 Fold of mESC
  p-RPA32 protein: 0.2 Fold of mESC
  p-p53 protein: 4.2 Fold of mESC
[4]; [10]
  CHK1 protein: 1.0 Fold of mESC
  RAD51 protein: 1.3 Fold of mESC
  gH2AX protein: 31.8 Fold of mESC
  p-CHK2 protein: 0.5 Fold of mESC
  p-KAP1 protein: 0.0 Fold of mESC
  p-RPA32 protein: 0.1 Fold of mESC
  p-p53 protein: 3.1 Fold of mESC
[4]; Fig 6E
  AMPKa protein: 0.6 Fold of mESC
  GSK3b protein: 4.3 Fold of mESC
  p-p70SK protein: 2.8 Fold of mESC
[5]; Fig 1D
  H3ac protein: 0.3 Fold of mESC
  H4ac protein: 0.0 Fold of mESC
  aTubac (acetylated α-Tubulin) protein: 0.5 Fold of mESC
[5]; Fig 4H, Dox 2
  CHK1 protein: 1.3 Fold of mESC
  p-ATR protein: 2.7 Fold of mESC
  p-CHK1 protein: 4.4 Fold of mESC
  p-RPA32 protein: 1.5 Fold of mESC
  p-p53 protein: 6.5 Fold of mESC
[5]; Fig 4H, Eto, Dox 1, B02, EST
  CHK1 protein: 1.0 Fold of mESC
  p-ATR protein: 1.9 Fold of mESC
  p-CHK1 protein: 2.4 Fold of mESC
  p-RPA32 protein: 1.1 Fold of mESC
  p-p53 protein: 6.4 Fold of mESC
[5]; [11]
  CHK1 protein: 1.7 Fold of mESC
  RAD51 protein: 1.2 Fold of mESC
  gH2AX protein: 69.7 Fold of mESC
  p-CHK2 protein: 1.1 Fold of mESC
  p-KAP1 protein: 31.2 Fold of mESC
  p-RPA32 protein: 1.4 Fold of mESC
  p-p53 protein: 4.2 Fold of mESC
[5]; [12]
  CHK1 protein: 1.8 Fold of mESC
  RAD51 protein: 0.9 Fold of mESC
  gH2AX protein: 174.9 Fold of mESC
  p-CHK2 protein: 1.5 Fold of mESC
  p-KAP1 protein: 59.9 Fold of mESC
  p-RPA32 protein: 1.8 Fold of mESC
  p-p53 protein: 5.7 Fold of mESC
[5]; Fig 6E
  AMPKa protein: 0.2 Fold of mESC
  GSK3b protein: 0.8 Fold of mESC
  p-p70SK protein: 1.1 Fold of mESC
[6]; Fig 1D
  H3ac protein: 0.0 Fold of mESC
  H4ac protein: 0.0 Fold of mESC
  aTubac (acetylated α-Tubulin) protein: 0.3 Fold of mESC
[6]; [9]
  CHK1 protein: 2.1 Fold of mESC
  RAD51 protein: 0.1 Fold of mESC
  gH2AX protein: 142.6 Fold of mESC
  p-CHK2 protein: 0.7 Fold of mESC
  p-KAP1 protein: 0.0 Fold of mESC
  p-RPA32 protein: 0.5 Fold of mESC
  p-p53 protein: 2.0 Fold of mESC
[6]; [10]
  CHK1 protein: 0.2 Fold of mESC
  RAD51 protein: < 0.1 Fold of mESC
  gH2AX protein: 44.9 Fold of mESC
  p-CHK2 protein: 0.2 Fold of mESC
  p-KAP1 protein: 0.0 Fold of mESC
  p-RPA32 protein: 0.1 Fold of mESC
  p-p53 protein: 2.6 Fold of mESC
[6]; Fig 6E
  AMPKa protein: 0.7 Fold of mESC
  GSK3b protein: 5.7 Fold of mESC
  p-p70SK protein: 0.5 Fold of mESC
